Data: PubChem BioAssay AID1918991 (Molecular Pharmacology Branch, DTP, NCI, 2023)
pIC50: −log10 of the molar value. “And” between values parts separate entries of the source, which are not always exact repeats. Identical values can stand only once.

Tested on: 186277-243-T-J2-PDC complex spheroid growth
Assay: Anticancer human tumor 186277-243-T-J2-PDC patient-derived colon adenocarcinoma cell line growth inhibition [AhR]
Conditions: for viability, T/C: stronger effect = lower value
Outline: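 Complex tumor spheroids co-cultured with HUVEC and human MSC stroma; AhR antagonists tested in combination with standard-of-care and investigational agents. Top concentration at or near clinical Cmax (else 10 microM), half-log dilutions; growth expressed as percent test/control.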

[1] = curve of first compound, second compound 0.1 µM
[2] = curve of first compound, second compound 0.316 µM
[3] = curve of first compound, second compound 1 µM
[4] = curve of first compound, second compound 3.16 µM
[5] = curve of first compound, second compound 10 µM
[6] = second compound 0.1 µM, first compound 0.00949 µM
[7] = second compound 0.1 µM, first compound 0.03 µM
[8] = second compound 0.1 µM, first compound 0.0949 µM
[9] = second compound 0.1 µM, first compound 0.3 µM
[10] = second compound 0.316 µM, first compound 0.00949 µM
[11] = second compound 0.316 µM, first compound 0.03 µM
[12] = second compound 0.316 µM, first compound 0.0949 µM
[13] = second compound 0.316 µM, first compound 0.3 µM
[14] = second compound 1 µM, first compound 0.00949 µM
[15] = second compound 1 µM, first compound 0.03 µM
[16] = second compound 1 µM, first compound 0.0949 µM
[17] = second compound 1 µM, first compound 0.3 µM
[18] = second compound 3.16 µM, first compound 0.00949 µM
[19] = second compound 3.16 µM, first compound 0.03 µM
[20] = second compound 3.16 µM, first compound 0.0949 µM
[21] = second compound 3.16 µM, first compound 0.3 µM
[22] = second compound 10 µM, first compound 0.00949 µM
[23] = second compound 10 µM, first compound 0.03 µM
[24] = second compound 10 µM, first compound 0.0949 µM
[25] = second compound 10 µM, first compound 0.3 µM
[26] = second compound 0.1 µM, first compound 0.0316 µM
[27] = second compound 0.1 µM, first compound 0.1 µM
[28] = second compound 0.1 µM, first compound 0.316 µM
[29] = second compound 0.1 µM, first compound 1 µM
[30] = second compound 0.316 µM, first compound 0.0316 µM
[31] = second compound 0.316 µM, first compound 0.1 µM
[32] = second compound 0.316 µM, first compound 0.316 µM
[33] = second compound 0.316 µM, first compound 1 µM
[34] = second compound 1 µM, first compound 0.0316 µM
[35] = second compound 1 µM, first compound 0.1 µM
[36] = second compound 1 µM, first compound 0.316 µM
[37] = second compound 1 µM, first compound 1 µM
[38] = second compound 3.16 µM, first compound 0.0316 µM
[39] = second compound 3.16 µM, first compound 0.1 µM
[40] = second compound 3.16 µM, first compound 0.316 µM
[41] = second compound 3.16 µM, first compound 1 µM
[42] = second compound 10 µM, first compound 0.0316 µM
[43] = second compound 10 µM, first compound 0.1 µM
[44] = second compound 10 µM, first compound 0.316 µM
[45] = second compound 10 µM, first compound 1 µM
[46] = second compound 0.1 µM, first compound 3.16 µM
[47] = second compound 0.1 µM, first compound 10 µM
[48] = second compound 0.316 µM, first compound 3.16 µM
[49] = second compound 0.316 µM, first compound 10 µM
[50] = second compound 1 µM, first compound 3.16 µM
[51] = second compound 1 µM, first compound 10 µM
[52] = second compound 3.16 µM, first compound 3.16 µM
[53] = second compound 3.16 µM, first compound 10 µM
[54] = second compound 10 µM, first compound 3.16 µM
[55] = second compound 10 µM, first compound 10 µM
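Further: spheroids exposed to compounds for seven days before the viability read.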
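Wherever viability, T/C is given: luminescent signal used as a stand-in for viable cell amount; 100% = DMSO vehicle control wells.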

SMILES: Nc1ncn(C2CC(O)C(CO)S2)c(=O)n1 (configuration not stated) + CC(CO)NC(=O)c1cc(-c2ccc(Cl)cc2)nn(-c2cnn(C)c2)c1=O
- pIC50 [1]: 6.86
- pIC50 [2]: 6.93
- pIC50 [3]: 6.88
- pIC50 [4]: 6.85
- pIC50 [5]: 6.93
- viability, T/C (second compound 0.1 µM, first compound 0.000949 µM): 101%
- viability, T/C (second compound 0.1 µM, first compound 0.003 µM): 94.8%
- viability, T/C [6]: 93%
- viability, T/C [7]: 85.6%
- viability, T/C [8]: 59.6%
- viability, T/C [9]: 29.9%
- viability, T/C (second compound 0.316 µM, first compound 0.000949 µM): 83.6%
- viability, T/C (second compound 0.316 µM, first compound 0.003 µM): 92.8%
- viability, T/C [10]: 92.8%
- viability, T/C [11]: 93.1%
- viability, T/C [12]: 55%
- viability, T/C [13]: 29.1%
- viability, T/C (second compound 1 µM, first compound 0.000949 µM): 102%
- viability, T/C (second compound 1 µM, first compound 0.003 µM): 100%
- viability, T/C [14]: 99.4%
- viability, T/C [15]: 94.2%
- viability, T/C [16]: 56.7%
- viability, T/C [17]: 33.1%
- viability, T/C (second compound 3.16 µM, first compound 0.000949 µM): 82%
- viability, T/C (second compound 3.16 µM, first compound 0.003 µM): 93%
- viability, T/C [18]: 92%
- viability, T/C [19]: 85%
- viability, T/C [20]: 59.8%
- viability, T/C [21]: 32%
- viability, T/C (second compound 10 µM, first compound 0.000949 µM): 89.1%
- viability, T/C (second compound 10 µM, first compound 0.003 µM): 75.1%
- viability, T/C [22]: 89.1%
- viability, T/C [23]: 66.8%
- viability, T/C [24]: 55.1%
- viability, T/C [25]: 34.2%

SMILES: O=C(C=Cn1cnc(-c2cc(C(F)(F)F)cc(C(F)(F)F)c2)n1)NNc1cnccn1
- viability, T/C (compound 0.00949 µM): 92.2% and 97% and 81.2%
- viability, T/C (compound 0.03 µM): 102% and 90.7% and 65.3%
- viability, T/C (compound 0.0949 µM): 102% and 91.8% and 41.7%
- viability, T/C (compound 0.3 µM): 74.7% and 80.7% and 10.9%
- viability, T/C (compound 0.949 µM): 12.6% and 17.4% and 2.87%
- viability, T/C (compound 3 µM): 4.45% and 8.73% and 1.48%
- pIC50 (curve of compound): 6.32 and 6.28 and 7.21

SMILES: CC1COCCN1c1cc(-c2ccnn2C)c2ccnc(-c3ccn[nH]3)c2n1 (configuration not stated) + Cc1cncc(-c2nc(NCCc3c[nH]c4ccccc34)c3ncn(C(C)C)c3n2)c1
- pIC50 [1]: 7.10
- pIC50 [2]: 7.10
- pIC50 [3]: 7.09
- pIC50 [4]: 7.14
- pIC50 [5]: > 8.50
- viability, T/C (second compound 0.1 µM, first compound 0.00316 µM): 99%
- viability, T/C (second compound 0.1 µM, first compound 0.01 µM): 106%
- viability, T/C [26]: 112%
- viability, T/C [27]: 36.4%
- viability, T/C [28]: 7.55%
- viability, T/C [29]: 3.82%
- viability, T/C (second compound 0.316 µM, first compound 0.00316 µM): 97.4%
- viability, T/C (second compound 0.316 µM, first compound 0.01 µM): 106%
- viability, T/C [30]: 122%
- viability, T/C [31]: 35.2%
- viability, T/C [32]: 8.4%
- viability, T/C [33]: 4.07%
- viability, T/C (second compound 1 µM, first compound 0.00316 µM): 107%
- viability, T/C (second compound 1 µM, first compound 0.01 µM): 90%
- viability, T/C [34]: 119%
- viability, T/C [35]: 37.4%
- viability, T/C [36]: 7.76%
- viability, T/C [37]: 5.82%
- viability, T/C (second compound 3.16 µM, first compound 0.00316 µM): 95.3%
- viability, T/C (second compound 3.16 µM, first compound 0.01 µM): 105%
- viability, T/C [38]: 116%
- viability, T/C [39]: 29%
- viability, T/C [40]: 9.02%
- viability, T/C [41]: 5.27%
- viability, T/C (second compound 10 µM, first compound 0.00316 µM): 25.3%
- viability, T/C (second compound 10 µM, first compound 0.01 µM): 26.8%
- viability, T/C [42]: 13.8%
- viability, T/C [43]: 6.13%
- viability, T/C [44]: 3.4%
- viability, T/C [45]: 2.65%

SMILES: COc1cccc2c1C(=O)c1c(O)c3c(c(O)c1C2=O)CC(O)(C(=O)CO)CC3OC1CC(N)C(O)C(C)O1 (configuration not stated) + CC(CO)NC(=O)c1cc(-c2ccc(Cl)cc2)nn(-c2cnn(C)c2)c1=O
- pIC50 [1]: > 7.50
- pIC50 [2]: > 7.50
- pIC50 [3]: > 7.50
- pIC50 [4]: > 7.50
- pIC50 [5]: > 7.50
- viability, T/C [26]: 39.3%
- viability, T/C [27]: 28.8%
- viability, T/C [28]: 7.36%
- viability, T/C [29]: 0.1%
- viability, T/C [46]: 0.08%
- viability, T/C [47]: 0.32%
- viability, T/C [30]: 38.3%
- viability, T/C [31]: 27.1%
- viability, T/C [32]: 7.61%
- viability, T/C [33]: 0.08%
- viability, T/C [48]: 0.06%
- viability, T/C [49]: 0.6%
- viability, T/C [34]: 37.9%
- viability, T/C [35]: 29%
- viability, T/C [36]: 8.06%
- viability, T/C [37]: 0.09%
- viability, T/C [50]: 0.37%
- viability, T/C [51]: 0.22%
- viability, T/C [38]: 33.9%
- viability, T/C [39]: 27.5%
- viability, T/C [40]: 7.26%
- viability, T/C [41]: 0.08%
- viability, T/C [52]: 0.09%
- viability, T/C [53]: 0.64%
- viability, T/C [42]: 28.2%
- viability, T/C [43]: 24.3%
- viability, T/C [44]: 4.49%
- viability, T/C [45]: 0.2%
- viability, T/C [54]: 0.17%
- viability, T/C [55]: 0.32%

SMILES: COc1cc(C2c3cc4c(cc3C(OC3OC5COC(C)OC5C(O)C3O)C3COC(=O)C23)OCO4)cc(OC)c1O (configuration not stated) + Cc1ccccc1N=Nc1ccc(NC(=O)c2ccnn2C)c(C)c1
- pIC50 [1]: 5.05
- pIC50 [2]: 5.11
- pIC50 [3]: 5.12
- pIC50 [4]: 5.14
- pIC50 [5]: 5.13
- viability, T/C [26]: 87.1%
- viability, T/C [27]: 103%
- viability, T/C [28]: 142%
- viability, T/C [29]: 99.7%
- viability, T/C [46]: 81%
- viability, T/C [47]: 46.5%
- viability, T/C [30]: 98.5%
- viability, T/C [31]: 117%
- viability, T/C [32]: 145%
- viability, T/C [33]: 96.1%
- viability, T/C [48]: 78.6%
- viability, T/C [49]: 42%
- viability, T/C [34]: 113%
- viability, T/C [35]: 124%
- viability, T/C [36]: 144%
- viability, T/C [37]: 93.6%
- viability, T/C [50]: 76.2%
- viability, T/C [51]: 41.7%
- viability, T/C [38]: 94.8%
- viability, T/C [39]: 106%
- viability, T/C [40]: 137%
- viability, T/C [41]: 94.6%
- viability, T/C [52]: 72.8%
- viability, T/C [53]: 41.2%
- viability, T/C [42]: 102%
- viability, T/C [43]: 104%
- viability, T/C [44]: 118%
- viability, T/C [45]: 93.6%
- viability, T/C [54]: 71.7%
- viability, T/C [55]: 42.4%

SMILES: CCN(c1cc(-c2ccc(CN3CCOCC3)cc2)cc(C(=O)NCc2c(C)cc(C)[nH]c2=O)c1C)C1CCOCC1 + Cc1cncc(-c2nc(NCCc3c[nH]c4ccccc34)c3ncn(C(C)C)c3n2)c1
- pIC50 [1]: < 5.52
- pIC50 [2]: < 5.52
- pIC50 [3]: < 5.52
- pIC50 [4]: < 5.52
- pIC50 [5]: 6.19
- viability, T/C [6]: 106%
- viability, T/C [7]: 89.7%
- viability, T/C [8]: 108%
- viability, T/C [9]: 102%
- viability, T/C (second compound 0.1 µM, first compound 0.949 µM): 94%
- viability, T/C (second compound 0.1 µM, first compound 3 µM): 98.5%
- viability, T/C [10]: 91.8%
- viability, T/C [11]: 110%
- viability, T/C [12]: 102%
- viability, T/C [13]: 101%
- viability, T/C (second compound 0.316 µM, first compound 0.949 µM): 106%
- viability, T/C (second compound 0.316 µM, first compound 3 µM): 103%
- viability, T/C [14]: 98%
- viability, T/C [15]: 115%
- viability, T/C [16]: 115%
- viability, T/C [17]: 102%
- viability, T/C (second compound 1 µM, first compound 0.949 µM): 111%
- viability, T/C (second compound 1 µM, first compound 3 µM): 107%
- viability, T/C [18]: 102%
- viability, T/C [19]: 103%
- viability, T/C [20]: 103%
- viability, T/C [21]: 105%
- viability, T/C (second compound 3.16 µM, first compound 0.949 µM): 90.7%
- viability, T/C (second compound 3.16 µM, first compound 3 µM): 119%
- viability, T/C [22]: 84.8%
- viability, T/C [23]: 98.5%
- viability, T/C [24]: 82.9%
- viability, T/C [25]: 72.1%
- viability, T/C (second compound 10 µM, first compound 0.949 µM): 39.6%
- viability, T/C (second compound 10 µM, first compound 3 µM): 9.95%
